Data: patent publication US20100105637A1, “Drug-surfactant complexes for sustained release” (priority 2005, published 2010)
Counter-ions that a name gives are not always drawn.

Test: Fractional release of drug from tablets into stirred aqueous solution, measured by uv/vis spectroscopy
Format: physicochemical
Details: 150 mg tablets without binders or excipients, pH 7.0 water, stirred at 100 rpm (FIG. 1)
Protocol: The tablets were placed into pH 7.0 water and stirred with a stirrer at 100 rpm. Fractional release was determined by uv/vis spectroscopy of the aqueous solution at 278 nm to measure the concentration of diltiazem in solution.
The tablets were placed in pH 7.0 water and stirred at 100 rpm, and fractional release was measured as above.
The drug-bile complex was pressed into tablets without any binders or excipients as in Example 1.

Q: Which “amount of diltiazem released at the first time point” value does the source give for `COc1ccc([C@@H]2Sc3ccccc3N(CCN(C)C)C(=O)[C@@H]2OC(C)=O)cc1` [diltiazem-HCl, Diltiazem-HCl] here?
A: all
